# Legend:
# rats = assay: Open field center time, base-line and caffeine-relaxed rats; format: in vivo, rat; settings: FIG. 4; caffeine-relaxed rats
# Experimental: As in Example 3, above, open field tests were used to measure the anxiolytic effects of melatonin, valerian and a combination of these two substances. However, in some of the rats in the present study, the effect of the test substances was measured in rats which had also received caffeine. Thus, while the study reported in Example 3 provided insights into the effect of melatonin and valerian on base-line anxiety, the results obtained in this study relate to the effect of these substances on both base-line and caffeine-induced (“caffeine-relaxed”) subjects. The same open-field method was used as in Example 3. However, in this study, the parameter that was measured was the “center time” that is, the time that the rats spend in the center of tested arena. The center time was used as an index for the anxiolytic effect of the test substances in both “base-line” and “caffeine-relaxed” rats.
# laboratory rats = assay: Open field spontaneous activity (mobility time), anxiolytic effect; format: in vivo, rat; settings: FIG. 3, 15 minute session, 30 minutes after administration
# Experimental: Open field tests were used as a measure of the spontaneous activity of laboratory rats, in order to measure the anxiolytic effects of melatonin, valerian and a combination of these two substances. Rats were placed in a behavioral room one hour before testing procedures, for purpose of habituation. Activity was tested in open boxes (open-fields: 80 cm wide, 80 cm large, 60 cm high) made of transparent Plexiglas. Animals were individually placed in the open-fields for 15 minute sessions. The following parameters were recorded: Indices of motor exploratory activity: the distance traveled, mobility time, Open Field spontaneous activity is performed on the testing day, 30 minutes after the administration of a test substance (melatonin, valerian, a combination of the two, or vehicle). • Indices of habituation: distance traveled. • During the last 5 minute period in percent of the first as last 5 minute periods. • Indices of anxiety: • Percentage of distance traveled in the central zone of the open-field. • Percentage of time spent in the central zone of the open-field.
# RAW 264.7 cells = assay: Nitric oxide (NO) release from LPS-activated RAW 264.7 cells, Griess Reagent System; format: cell-based, murine; settings: for inhibition of NO production when compared with the LPS-stimulated baseline cells: 1.3 μM valerenic acid
# Experimental: The objective of the studies reported in working examples 1-5 hereinbelow was to evaluate the anti-inflammatory properties of Melatonin, carnosic acid (Rosemary extract), Valerenic acid and combinations thereof on a cell line derived from murine macrophages (RAW 264.7 cells) activated by lipopolysaccharide (LPS).
# 10^5 RAW 264.7 cells were seeded in 96-well plates in a medium containing 1% FBS, 1% Glutamine and 1% Pen/strep in DMEM.
# For dose response assays, cells were treated with 2-fold concentrations of Melatonin (starting from 15.6 μM up to 1000 μM LOT # XPS150311, Yes Pharma), Rosemary extract (0.1, 0.2, 0.4, 1, 2, 4, or 10 μM, Product #302659, Batch # LAB.16-659001, Vitiva) or 10% Valerenic acid (starting from 1.56 mg/ml up to 100 mg/ml, Batch # IWTC/5949/15001, Indo World Trading Corporation) for 6 hours. Then, the test solutions were removed and the cells were induced with lipopolysaccharide (LPS) (5 ng/ml). In addition, positive control cells were treated with 10 μM dexamethasone. Nitric oxide (NO) release was measured after incubation at 37° C., 5% CO2 using a Griess Reagent System. The method is based on the chemical diazotization reaction that was originally described by Griess in 1879, which uses sulfanilamide and N-1-napthylethylenediamine dihydrochloride (NED) under acidic (phosphoric acid) conditions. This system detects NO2^− in a variety of biological and experimental liquid matrices such as tissue culture medium that was tested in this study.
# For combination assays, cells were treated with various concentrations of Melatonin, Rosemary extract (containing 25% carnosic acid) and 10% Valerenic acid, at the final concentration indicated in each experiment, hereinbelow, for 22 hours together with LPS induction (5 ng/ml). […] In addition, positive control cells were treated with 10 μM dexamethasone. Nitric oxide (NO) release was tested after incubation at 37° C., 5% CO2 using the Griess Reagent System.
# [1] = Example 1, FIG. 1, tested separately: 0.5 μM Melatonin, 0.7 μM carnosic acid, 22 hours together with 5 ng/ml LPS
# [2] = Example 2, tested separately: 0.05 μM Melatonin, 0.07 μM carnosic acid, 5 ng/ml LPS
Compound,caffeine induced center motility (rats),mobility time in comparison to the vehicle control (laboratory rats),inhibition of NO production when compared with the LPS-stimulated baseline cells (RAW 264.7 cells; [1]),inhibition of NO production when compared with the LPS-stimulated baseline cells (RAW 264.7 cells; [2]),"NO production by the cultured cells (RAW 264.7 cells; Example 1, FIG. 1 column 2, positive control 10 μM dexamethasone, 5 ng/ml LPS, LPS-stimulated untreated cells 40 μM) [µM]"
"COc1ccc2[nH]cc(CCNC(C)=O)c2c1 [Melatonin, N-acetyl-5-methoxytryptamine]",only valerian (both when used separately and when combined with melatonin) affected caffeine induced center motility,increased the mobility time,none of the following individual components produced any significant inhibition,none of the following individual components produced any significant inhibition,
CC(C)c1cc2c(c(O)c1O)[C@@]1(C(=O)O)CCCC(C)(C)[C@@H]1CC2 [carnosic acid],,,none of the following individual components produced any significant inhibition,none of the following individual components produced any significant inhibition,
C[C@@H]1C[C@H]2[C@@H]3CCC4=CC(=O)C=C[C@]4(C)[C@@]3(F)[C@@H](O)C[C@]2(C)[C@@]1(O)C(=O)CO [dexamethasone],,,,,30
CC1=C2[C@H](/C=C(\C)C(=O)O)CC[C@@H](C)[C@H]2CC1 [valerenic acid],,,none of the following individual components produced any significant inhibition,none of the following individual components produced any significant inhibition,

# Source: patent publication US10675269B2, “Compositions comprising melatonin” (TRINUTRA LTD., priority 2016, dated 2020)
